± gives the expanded uncertainty stated by the source.
Legend:
[1] = 298.15 K; 101.33 kPa; Liquid; mechanical oscillator
[2] = refractive index (Na D-line) (dimensionless); details: 298.15 K; 101.33 kPa; Liquid; Standard Abbe refractometry

SMILES	mass density [1] [kg/m3]	refractive index [2]
CC(C)OC(C)C [diisopropyl ether]	718.3 ± 0.3	1.3653 ± 0.0007
CO [methanol]	786.62 ± 0.21	1.32666 ± 0.00068
CC(C)O [propan-2-ol]	782.45 ± 0.21	1.37522 ± 0.00068

From the NIST ThermoML archive (doi:10.1016/j.fluid.2015.07.023)
